Test system: male Sprague-Dawley rats
Experiment: elevated maze test in the rat (anxiolytic effect)
Type: in vivo
Conditions: per os, 60-min pretreatment, 5-min measurement, MED regarding time spent in the open arms and number of entries into the open arms
Experimental: Pharmacological activity of the compounds of the general Formula (I) has been evaluated in elevated maze test in the rat.
The tests were carried out according to the method of S. Fellow and coworkers (J. Neurosci. Methods. 1985, 14, 149-167). During the test, a wooden-floor cross elevated by 50 cm from the ground was used. The length and the width of the arms of the cross were 100 and 15 cm, respectively. Two opposite arms of the cross are fitted at the ends and both sides with black plexiglass wall of 40 cm height (closed arms). The central section of the cross measuring 15 by 15 cm is open. The other two opposite arms of the cross are not provided with walls (open arms).
The tests were carried out in male Sprague-Dawley rats weighing 200 to 220 g. After the 60-min pretreatment time (per os treatment), animals were placed in the center of the maze. During the 5-min measurement time, four variables were recorded: the time spent in the open arms; the time spent in the closed arms; the number of entries into the open arms; the number of entries into the closed arms.
Animals normally avoid the open and light parts of the maze, thereby spending little time therein only. The anxiolytic effect of the compounds of the general Formula (I) is indicated by the increase in the time spent (in seconds) in the open arms and/or by the increase in the number of the entries into the open compartments of the maze. The minimum effective dose (MED) was determined for each tested compounds regarding the time spent in the open arms and the number of entries into the open arms. During the test, the known anxiolytic compound I-methyl-5-phenyl-7-chloro-1,3-dihydro-2H-1,4-benzodiazepin-2-one (INN: diazepam) of the Formula (IV)
was used. Treatment of the animals was carried out orally with the doses 0.1, 0.3, 1.0, 3.0 for diazepam and 0.01, 0.1, 1.0 mg/kg for the compounds of the general Formula (I).
In the case of `CN1C(=O)CN=C(c2ccccc2)c2cc(Cl)ccc21` [Diazepam, I-methyl-5-phenyl-7-chloro-1,3-dihydro-2H-1,4-benzodiazepin-2-one, reference compound], the “MED (minimum effective dose), anxiolytic effect in elevated maze test” value (“MED (minimum effective dose)” below) is reported as 1.00 mg/kg p.o.
In the case of `CC1NNS(=O)(=O)c2cc(Cl)ccc21` (stereo not shown) [Example 1, 7-chloro-4-methyl-3,4-dihydrobenzo[1,2,3]thiadiazine-1,1-dioxide], the “MED (minimum effective dose)” value is reported as 0.3 mg/kg p.o.
In the case of `CC1NNS(=O)(=O)c2c1ccc(Cl)c2Cl` (stereo not shown) [Example 3, 7,8-Dichloro-4-methyl-3,4-dihydrobenzo[1,2,3]thiadiazine-1,1-dioxide], the “MED (minimum effective dose)” value is reported as 0.01 mg/kg p.o.
With `Cc1cc(Cl)c(Cl)c2c1C(C)NNS2(=O)=O` (stereo not shown) [Example 5, 7,8-Dichloro-4,5-dimethyl-3,4-dihydrobenzo[1,2,3]thiadiazine-1,1-dioxide] the “MED (minimum effective dose)” value was 0.01 mg/kg p.o.
In the case of `CC1NN(C)S(=O)(=O)c2c1ccc(Cl)c2Cl` (stereo not shown) [Example 16, 7,8-Dichloro-2,4-dimethyl-3,4-dihydrobenzo[1,2,3]thiadiazine-1,1-dioxide], the “MED (minimum effective dose)” value is reported as 0.01 mg/kg p.o.

Test system: not given
Experiment: not given
Conditions: not given
`CC1NNS(=O)(=O)c2cc(Cl)ccc21` (stereo not shown) [Example 1, 7-chloro-4-methyl-3,4-dihydrobenzo[1,2,3]thiadiazine-1,1-dioxide] gave a melting point of 155 to 156 °C.
Work on `CCC1NNS(=O)(=O)c2cc(Cl)ccc21` (stereo not shown) [Example 2, 4-Ethyl-7-chloro-3,4-dihydrobenzo[1,2,3]thiadiazine-1,1-dioxide] yielded a melting point of 128 to 130 °C.
Work on `CC1NNS(=O)(=O)c2c1ccc(Cl)c2Cl` (stereo not shown) [Example 3, 7,8-Dichloro-4-methyl-3,4-dihydrobenzo[1,2,3]thiadiazine-1,1-dioxide] yielded a melting point of 261 to 263 °C.
In the case of `CCC1NNS(=O)(=O)c2c1ccc(Cl)c2Cl` (stereo not shown) [Example 4, 7,8-Dichloro-4-ethyl-3,4-dihydrobenzo[1,2,3]thiadiazine-1,1-dioxide], the melting point is reported as 222 to 224 °C.
`Cc1cc(Cl)c(Cl)c2c1C(C)NNS2(=O)=O` (stereo not shown) [Example 5, 7,8-Dichloro-4,5-dimethyl-3,4-dihydrobenzo[1,2,3]thiadiazine-1,1-dioxide] gave a melting point of 197 to 199 °C.
In the case of `Cc1cc2c(c(Cl)c1Cl)S(=O)(=O)NNC2C` (stereo not shown) [Example 6, 7,8-Dichloro-4,6-dimethyl-3,4-dihydrobenzo[1,2,3]thiadiazine-1,1-dioxide], the melting point is reported as 253 to 254 °C.
Work on `CC1NNS(=O)(=O)c2c(Cl)cccc21` (stereo not shown) [Example 7, 8-chloro-4-methyl-3,4-dihydrobenzo[1,2,3]thiadiazine-1,1-dioxide] yielded a melting point of 202 to 203 °C.
`CC1NNS(=O)(=O)c2ccccc21` (stereo not shown) [Example 8, 4-Methyl-3,4-dihydrobenzo[1,2,3]thiadiazine-1,1-dioxide] gave a melting point of 150 to 152 °C.
Work on `COc1ccc2c(c1Cl)S(=O)(=O)NNC2C` (stereo not shown) [Example 9, 8-chloro-4-methyl-7-methoxy-3,4-dihydrobenzo[1,2,3]thiadiazine-1,1-dioxide] yielded a melting point of 231 to 233 °C.
Work on `COc1ccc2c(c1OC)S(=O)(=O)NNC2C` (stereo not shown) [Example 10, 7,8-Dimethoxy-4-methyl-3,4-dihydrobenzo[1,2,3]thiadiazine-1,1-dioxide] yielded a melting point of 211 to 213 °C.
With `COc1cccc2c1S(=O)(=O)NNC2C` (stereo not shown) [Example 11, 4-Methyl-8-methoxy-3,4-dihydrobenzo[1,2,3]thiadiazine-1,1-dioxide] the melting point was 231 to 233 °C.
Compound `COc1ccc2c(c1)CNNS2(=O)=O` [Example 13, 6-Methoxy-3,4-dihydrobenzo[1,2,3]thiadiazine-1,1-dioxide] has a melting point of 181 to 182 °C.
With `O=S1(=O)NNCc2ccccc21` [Example 14, 3,4-Dihydrobenzo[1,2,3]thiadiazine-1,1-dioxide] the melting point was 134 to 136 °C.
`COc1ccc2c(c1Cl)S(=O)(=O)NNC2` [Example 15, 8-chloro-7-methoxy-3,4-dihydrobenzo[1,2,3]thiadiazine-1,1-dioxide] showed a melting point of 209 to 210 °C.
With `CC1NN(C)S(=O)(=O)c2c1ccc(Cl)c2Cl` (stereo not shown) [Example 16, 7,8-Dichloro-2,4-dimethyl-3,4-dihydrobenzo[1,2,3]thiadiazine-1,1-dioxide] the melting point was 134 to 135 °C.
In the case of `CCC1NN(C)S(=O)(=O)c2c1ccc(Cl)c2Cl` (stereo not shown) [Example 17, 7,8-Dichloro-4-ethyl-2-methyl-3,4-dihydrobenzo[1,2,3]thiadiazine-1,1-dioxide], the melting point is reported as 139 to 141 °C.
With `Cc1cc(Cl)c(Cl)c2c1C(C)NN(C)S2(=O)=O` (stereo not shown) [Example 18, 7,8-Dichloro-2,4,5-trimethyl-3,4-dihydrobenzo[1,2,3]thiadiazine-1,1-dioxide] the melting point was 101 to 102 °C.
In the case of `COc1ccc2c(c1Cl)S(=O)(=O)N(C)NC2C` (stereo not shown) [Example 19, 2,4-Dimethyl-8-chloro-7-methoxy-3,4-dihydrobenzo[1,2,3]thiadiazine-1,1-dioxide], the melting point is reported as 141 to 143 °C.
For `CCN1NC(C)c2ccc(Cl)c(Cl)c2S1(=O)=O` (stereo not shown) [Example 21, 7,8-Dichloro-2-ethyl-4-methyl-3,4-dihydrobenzo[1,2,3]thiadiazine-1,1-dioxide], the melting point was 135 to 136 °C.
In the case of `CCC1NN(CC)S(=O)(=O)c2c1ccc(Cl)c2Cl` (stereo not shown) [Example 22, 2,4-Diethyl-7,8-dichloro-3,4-dihydrobenzo[1,2,3]thiadiazine-1,1-dioxide], the melting point is reported as 118 to 120 °C.
With `CC1NN(C)S(=O)(=O)c2c(Cl)cccc21` (stereo not shown) [Example 23, 2,4-Dimethyl-8-chloro-3,4-dihydrobenzo[1,2,3]thiadiazine-1,1-dioxide] the melting point was 128 to 130 °C.
In the case of `CCN1NC(C)c2cccc(Cl)c2S1(=O)=O` (stereo not shown) [Example 24, 2-Ethyl-8-chloro-4-methyl-3,4-dihydrobenzo[1,2,3]thiadiazine-1,1-dioxide], the melting point is reported as 79 to 80 °C.
Work on `Cc1cc2c(c(Cl)c1Cl)S(=O)(=O)N(C)NC2C` (stereo not shown) [Example 25, 7,8-Dichloro-2,4,6-trimethyl-3,4-dihydrobenzo[1,2,3]thiadiazine-1,1-dioxide] yielded a melting point of 141 to 142 °C.
In the case of `CC1c2ccc(Cl)c(Cl)c2S(=O)(=O)NN1C` (stereo not shown) [Example 26, 7,8-Dichloro-3,4-dimethyl-3,4-dihydrobenzo[1,2,3]thiadiazine-1,1-dioxide], the melting point is reported as 194 to 195 °C.
For `CCN1NS(=O)(=O)c2c(ccc(Cl)c2Cl)C1C` (stereo not shown) [Example 27, 7,8-Dichloro-3-ethyl-4-methyl-3,4-dihydrobenzo[1,2,3]thiadiazine-1,1-dioxide], the melting point was 172 to 174 °C.
For `CCCN1NS(=O)(=O)c2c(ccc(Cl)c2Cl)C1C` (stereo not shown) [Example 28, 7,8-Dichloro-4-methyl-3-propyl-3,4-dihydrobenzo[1,2,3]thiadiazine-1,1-dioxide], the melting point was 164 to 165 °C.
With `CCC1c2ccc(Cl)cc2S(=O)(=O)NN1CC` (stereo not shown) [Example 29, 3,4-Diethyl-7-chloro-3,4-dihydrobenzo[1,2,3]thiadiazine-1,1-dioxide] the melting point was 109 to 111 °C.
In the case of `CCC1c2ccc(Cl)cc2S(=O)(=O)NN1C(C)C` (stereo not shown) [Example 30, 4-Ethyl-3-isopropyl-7-chloro-3,4-dihydrobenzo[1,2,3]thia diazine-1,1-dioxide], the melting point is reported as 99 to 101 °C.
Compound `Cc1cc(Cl)c(Cl)c2c1C(C)N(C)NS2(=O)=O` (stereo not shown) [Example 31, 7,8-Dichloro-3,4,5-trimethyl-3,4-dihydrobenzo[1,2,3]thiadiazine-1,1-dioxide] has a melting point of 236 to 238 °C.
For `CN1Cc2ccccc2S(=O)(=O)N1` [Example 32, 3-Methyl-3,4-dihydrobenzo[1,2,3]thiadiazine-1,1-dioxide], the melting point was 176 to 178 °C.
Work on `CCN1Cc2ccccc2S(=O)(=O)N1` [Example 33, 3-Ethyl-3,4-dihydrobenzo[1,2,3]thiadiazine-1,1-dioxide] yielded a melting point of 146 to 147 °C.
For `COc1ccc2c(c1)CN(C)NS2(=O)=O` [Example 34, 3-Methyl-6-methoxy-3,4-dihydrobenzo[1,2,3]thiadiazine-1,1-dioxide], the melting point was 186 to 187 °C.
For `CCN1Cc2cc(OC)ccc2S(=O)(=O)N1` [Example 35, 3-Ethyl-6-methoxy-3,4-dihydrobenzo[1,2,3]thiadiazine-1,1-dioxide], the melting point was 180 to 181 °C.
`CN1Cc2ccc(Cl)c(Cl)c2S(=O)(=O)N1` [Example 36, 7,8-Dichloro-3-methyl-3,4-dihydrobenzo[1,2,3]thiadiazine-1,1-dioxide] showed a melting point of 189 to 190 °C.
With `CN1Cc2ccc(Cl)cc2S(=O)(=O)N1` [Example 37, 7-chloro-3-methyl-3,4-dihydrobenzo[1,2,3]thiadiazine-1,1-dioxide] the melting point was 188 to 189 °C.
Work on `Cc1cc(Cl)c(Cl)c2c1C(C)N(C(C)C)NS2(=O)=O` (stereo not shown) [Example 38, 7,8-Dichloro-4,5-dimethyl-3-isopropyl-3,4-dihydrobenzo[1,2,3]thiadiazine-1,1-dioxide] yielded a melting point of 167 to 168 °C.
In the case of `COc1ccc2c(c1)CN(C)N(C)S2(=O)=O` [Example 39, 2,3-Dimethyl-6-methoxy-3,4-dihydrobenzo[1,2,3]thiadiazine-1,1-dioxide], the melting point is reported as 142 to 143 °C.
Work on `CCN1Cc2cc(OC)ccc2S(=O)(=O)N1C` [Example 40, 3-Ethyl-2-methyl-6-methoxy-3,4-dihydrobenzo[1,2,3]thiadiazine-1,1-dioxide] yielded a melting point of 123 to 125 °C.
Compound `CN1Cc2ccccc2S(=O)(=O)N1C` [Example 41, 2,3-Dimethyl-3,4-dihydrobenzo[1,2,3]thiadiazine-1,1-dioxide] has a melting point of 143 to 145 °C.
`CCN1Cc2ccccc2S(=O)(=O)N1C` [Example 42, 3-Ethyl-2-methyl-3,4-dihydrobenzo[1,2,3]thiadiazine-1,1-dioxide] showed a melting point of 140 to 142 °C.
In the case of `CC1c2ccc(Cl)c(Cl)c2S(=O)(=O)N(C)N1C` (stereo not shown) [Example 43, 7,8-Dichloro-2,3,4-trimethyl-3,4-dihydrobenzo[1,2,3]thiadiazine-1,1-dioxide], the melting point is reported as 135 to 136 °C.
